System: H1 human embryonic stem cells
Assay: Dose ranging of compounds with activin A or GDF-8, SOX17 and cell number (Example 15)
Format: cell-based
Details: for SOX17 expression in combination with GDF-8 / cell numbers at the end of assay in combination with GDF-8: 78 nM to 10 μM compound with 100 ng/ml GDF-8; for SOX17 expression with activin A treatment: 78 nM to 10 μM compound with 100 ng/ml activin A, one or three days of compound
Description: Stock cultures of human embryonic stem cells (H1 human embryonic stem cell line) were maintained in an undifferentiated, pluripotent state on reduced growth factor […]™ (BD Biosciences; Cat #356231)-coated dishes in MEF conditioned medium supplemented with 8 ng/ml bFGF (PeproTech Inc.; Cat #100-18B) with passage on average every four days. Passage was performed, by exposing cell cultures to a solution of 1 mg/ml dispase (Invitrogen; Cat #17105-041) for 5 to 7 minutes at 37° C. followed by rinsing the monolayer with MEF conditioned culture medium and gentle scraping to recover cell clusters. Clusters were centrifuged at low speed to collect a cell pellet and remove residual dispase. Cell clusters were split at a 1:3 or 1:4 ratio for routine maintenance culture or a 1:1 ratio for immediate assay. All human embryonic stem cell lines were maintained at passage numbers less than 50 and routinely evaluated for normal karyotype and absence of mycoplasma.
Cell clusters were evenly resuspended in MEF conditioned medium supplemented with 8 ng/ml bFGF and seeded onto reduced growth factor […]™-coated 96-well Packard VIEWPLATES (PerkinElmer; Cat #6005182) in volumes of 0.1 ml/well. Daily feeding was conducted by aspirating spent culture medium from each well and replacing with an equal volume of fresh medium. Plates were maintained at 37° C., 5% CO2 throughout the duration of assay.
Assay was initiated by aspirating the culture medium from each well and adding back aliquots (100 μl) of test medium. Test conditions were performed in quadruplicate over a total four-day assay period, feeding daily by aspirating and replacing the medium from each well with fresh test medium. […] Test compounds in this assay included six of the compounds of the present invention: Compound 181, Compound 180, Compound 19, Compound 202, Compound 40, and Compound 34, and a commercial GSK31 inhibitor BIO (EMD Chemicals, Inc.; Cat #361550). On the first day of assay, wells were treated with various control or experimental conditions. Control conditions, with final assay concentrations as indicated, were as follows: 1) growth medium alone; 2) 20 ng/ml Wnt3a only R&D Systems; Cat #1324-WN/CF); 3) 100 ng/ml activin A (PeproTech; Cat #120-14); 4) 100 ng/mlactivin A and 20 ng/ml Wnt3a; 5) 100 ng/ml GDF-8 (R&D Systems, Cat #788-G8); 6) 100 ng/ml GDF-8 and 20 ng/ml Wnt3a. Test compounds were diluted two-fold in series to yield a concentration range from 78 nM to 10 μM in the final assay. Experimental test samples combined each individual compound dilution series with 100 ng/ml activin A or 100 ng/ml GDF-8, both treatment sets in the absence of Wnt3a. On the second and third day of assay, some wells continued to be treated with 20 ng/ml Wnt3a or diluted test compound in combination with either activin A or GDF-8. In other wells, activin A or GDF-8 treatment continued on the second and third day of assay, but Wnt3a or diluted test compound was removed.
At the conclusion of culture, assay plates were washed once with PBS (Invitrogen; Cat #14190), fixed with 4% paraformaldehyde (Alexis Biochemical; Cat #ALX-350-011) at room temperature for 20 minutes, then washed three times with PBS and permeabilized with 0.5% Triton X-100 (Sigma; Cat #T8760-2) for 20 minutes at room temperature. Cells were washed again three times with PBS and blocked with 4% chicken serum (Invitrogen; Cat #16110082) in PBS for 30 minutes at room temperature. Primary antibody (goat anti-human SOX17; R&D Systems; Cat #AF1924) was diluted 1:100 in 4% chicken serum and added to each well for two hours at room temperature. After washing three times with PBS, Alexa Fluor 488 conjugated secondary antibody (chicken anti-goat IgG; Invitrogen; Cat #A21467) diluted 1:200 in PBS was added to each well. To counterstain nuclei, 5 μg/ml Hoechst 33342 (Invitrogen; Cat #H3570) was added for fifteen minutes at room temperature. Plates were washed once with PBS and left in 100 μl/well PBS for imaging. […]

| Compound | SOX17 expression in combination with GDF-8 | cell numbers at the end of assay in combination with GDF-8 | SOX17 expression with activin A treatment | SOX17 expression, control treatments (100 ng/ml activin A versus 100 ng/ml GDF-8, alone or with Wnt3a) |
| --- | --- | --- | --- | --- |
| O=C1CCN2CCN(CC2)Cc2cc(Cl)cc(c2)Nc2ncnc(n2)-c2cncc(c2)CCCN1 [Compound 34, 5-Chloro-1,8,10,12,16,22,26,32-octaazapentacyclo[24.2.2.1˜3.7˜0.1˜9,13˜0.1˜14.18˜]tritriaconta-3(33), 4,6,9(32), 10,12,14(31), 15,17-nonaen-23-one] | significantly improved SOX17 expression | enhanced cell numbers | did not enhance SOX 17 expression |  |
| Activin A: recombinant human activin A (PeproTech), TGF-beta family member |  |  |  | significantly higher SOX17 expression |
| CN1CCC(=O)NCCCc2cncc(c2)-c2ncnc(n2)Nc2cccc(c2)C1 [Compound 19, 14-Methyl-3,5,7,14,18,24,28-heptaazatetracyclo[20.3.1.1˜2,6˜0.1˜8,12˜]octacosa-1(26), 2(28), 3,5,8(27), 9,11,22,24-nonaen-17-one] | significantly improved SOX17 expression | enhanced cell numbers | did not enhance SOX 17 expression |  |
| C=CCN1CC(=O)NCCCc2cncc(c2)-c2ncnc(n2)Nc2cccc(c2)C1 [Compound 40, 14-Prop-2-en-1-yl-3,5,7,14,17,23,27-heptaazatetracyclo[19.3.1.1˜2.6˜0.1˜8,12˜]heptacosa-1(25), 2(27), 3,5,8(26), 9,11,21,23-nonaen-16-one] | significantly improved SOX17 expression | enhanced cell numbers | did not enhance SOX 17 expression |  |
